Assay results reported in ChEMBL document CHEMBL5370599, “Discovery of a 53BP1 Small Molecule Antagonist Using a Focused DNA-Encoded Library Screen” (J Med Chem, 2023).

Columns and labels:
HEK-293T [1] = assay: Cytotoxicity against HEK293T cells assessed as reduction in cell viability by celltiterglo 2.0 assay; type: toxicity, cell-based; details: human
TERT-RPE1 [2] = assay: Cytotoxicity against human RPE-1 cells assessed as reduction in cell viability by celltiterglo 2.0 assay; type: toxicity, cell-based
[3] = Displacement of Biotin-p53K381acK382me2 from KDM7B (unknown origin) by TR-FRET assay; design: species or system Homo sapiens
[4] = Kinetic solubility of compound by CLND analysis; type: physicochemical
HEK-293T [5] = assay: Cytotoxicity against HEK293T cells assessed as reduction in cell viability measured upto 200 uM by celltiterglo 2.0 assay; type: toxicity, cell-based; details: human
[6] = biological target: Histone-lysine N-methyltransferase SETDB1 (Homo sapiens, UniProt Q15047); assay: Displacement of Biotin-p53K381acK382me2 from SETDB1 tandem tudor domain (unknown origin) by TR-FRET assay
TP53-binding protein 1 [7] = biological target: T1, TP53-binding protein 1 (Homo sapiens, UniProt Q12888); assay: Displacement of Biotin-p53K381acK382me2 from N-terminal his6-tagged 53BP1 (1484 to 1603 residues) (unknown origin) expressed in Rosetta2 BL21 (DE3) pLysS competent cells by TR-FRET assay; type: single protein
T1 sequence (Q12888 whole entry, the tested form may be a part): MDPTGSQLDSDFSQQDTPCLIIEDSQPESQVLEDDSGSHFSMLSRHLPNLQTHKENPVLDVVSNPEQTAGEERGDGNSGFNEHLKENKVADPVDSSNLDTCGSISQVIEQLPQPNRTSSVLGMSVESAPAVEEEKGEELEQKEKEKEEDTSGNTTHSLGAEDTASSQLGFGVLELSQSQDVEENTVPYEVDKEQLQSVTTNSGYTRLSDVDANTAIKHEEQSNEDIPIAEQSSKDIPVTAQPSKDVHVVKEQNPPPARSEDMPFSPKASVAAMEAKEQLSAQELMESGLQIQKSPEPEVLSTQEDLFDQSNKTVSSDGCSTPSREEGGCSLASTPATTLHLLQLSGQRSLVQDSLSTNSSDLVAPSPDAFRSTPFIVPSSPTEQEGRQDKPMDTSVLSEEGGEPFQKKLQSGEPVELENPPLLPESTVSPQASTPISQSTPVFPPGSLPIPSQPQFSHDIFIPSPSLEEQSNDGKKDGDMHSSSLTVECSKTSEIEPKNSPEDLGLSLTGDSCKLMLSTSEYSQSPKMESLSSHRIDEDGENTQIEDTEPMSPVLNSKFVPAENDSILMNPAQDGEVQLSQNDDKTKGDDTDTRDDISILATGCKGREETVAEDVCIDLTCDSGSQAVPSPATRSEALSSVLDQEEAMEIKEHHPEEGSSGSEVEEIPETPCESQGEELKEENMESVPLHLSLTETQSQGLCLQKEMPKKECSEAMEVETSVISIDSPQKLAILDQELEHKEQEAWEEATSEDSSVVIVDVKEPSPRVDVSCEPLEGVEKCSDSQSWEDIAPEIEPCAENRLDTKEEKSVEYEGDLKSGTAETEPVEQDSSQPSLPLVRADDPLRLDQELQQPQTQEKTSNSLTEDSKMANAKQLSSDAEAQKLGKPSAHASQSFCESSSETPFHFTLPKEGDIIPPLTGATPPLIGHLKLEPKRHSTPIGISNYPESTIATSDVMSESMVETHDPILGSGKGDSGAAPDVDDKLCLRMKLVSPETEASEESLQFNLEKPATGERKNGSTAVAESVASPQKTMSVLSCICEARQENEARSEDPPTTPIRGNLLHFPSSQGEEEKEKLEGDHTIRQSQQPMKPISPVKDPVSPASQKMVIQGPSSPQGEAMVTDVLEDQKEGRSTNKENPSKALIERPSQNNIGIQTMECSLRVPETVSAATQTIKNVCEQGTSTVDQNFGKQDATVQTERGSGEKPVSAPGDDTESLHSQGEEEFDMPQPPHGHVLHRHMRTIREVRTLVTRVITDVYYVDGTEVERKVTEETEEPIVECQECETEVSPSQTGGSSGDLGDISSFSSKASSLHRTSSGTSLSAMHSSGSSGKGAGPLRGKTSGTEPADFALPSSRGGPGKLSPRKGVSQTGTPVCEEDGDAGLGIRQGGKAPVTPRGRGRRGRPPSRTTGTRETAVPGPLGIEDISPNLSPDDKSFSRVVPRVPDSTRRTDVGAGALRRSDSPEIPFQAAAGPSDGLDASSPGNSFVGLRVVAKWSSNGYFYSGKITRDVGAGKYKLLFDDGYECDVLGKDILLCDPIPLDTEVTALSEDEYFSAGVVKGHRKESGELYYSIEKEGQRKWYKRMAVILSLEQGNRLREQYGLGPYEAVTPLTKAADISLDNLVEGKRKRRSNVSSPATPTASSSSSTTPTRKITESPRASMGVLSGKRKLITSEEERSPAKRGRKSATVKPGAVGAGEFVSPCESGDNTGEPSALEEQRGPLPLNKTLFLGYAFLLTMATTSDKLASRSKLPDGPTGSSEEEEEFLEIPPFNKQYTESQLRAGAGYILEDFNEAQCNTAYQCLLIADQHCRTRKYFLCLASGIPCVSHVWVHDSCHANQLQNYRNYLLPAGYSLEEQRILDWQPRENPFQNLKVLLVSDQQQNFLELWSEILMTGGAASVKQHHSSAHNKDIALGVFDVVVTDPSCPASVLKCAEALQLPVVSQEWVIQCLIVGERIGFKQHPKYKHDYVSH

TP53-binding protein 1 [8] = biological target: T1, TP53-binding protein 1; details: filed as antagonist
Description: Binding affinity to N-terminal his6-tagged 53BP1 tandem tudor domain (1484 to 1603 residues) (unknown origin) expressed in Rosetta2 BL21 (DE3) pLysS competent cells assessed as change in enthalpy by differential scanning fluorimetry analysis

[9] = biological target: T2, E3 ubiquitin-protein ligase UHRF1 (Homo sapiens, UniProt Q96T88); assay: Displacement of Biotin-p53K381acK382me2 from UHRF1 tandem tudor domain (unknown origin) by TR-FRET assay
T2 sequence (Q96T88 whole entry): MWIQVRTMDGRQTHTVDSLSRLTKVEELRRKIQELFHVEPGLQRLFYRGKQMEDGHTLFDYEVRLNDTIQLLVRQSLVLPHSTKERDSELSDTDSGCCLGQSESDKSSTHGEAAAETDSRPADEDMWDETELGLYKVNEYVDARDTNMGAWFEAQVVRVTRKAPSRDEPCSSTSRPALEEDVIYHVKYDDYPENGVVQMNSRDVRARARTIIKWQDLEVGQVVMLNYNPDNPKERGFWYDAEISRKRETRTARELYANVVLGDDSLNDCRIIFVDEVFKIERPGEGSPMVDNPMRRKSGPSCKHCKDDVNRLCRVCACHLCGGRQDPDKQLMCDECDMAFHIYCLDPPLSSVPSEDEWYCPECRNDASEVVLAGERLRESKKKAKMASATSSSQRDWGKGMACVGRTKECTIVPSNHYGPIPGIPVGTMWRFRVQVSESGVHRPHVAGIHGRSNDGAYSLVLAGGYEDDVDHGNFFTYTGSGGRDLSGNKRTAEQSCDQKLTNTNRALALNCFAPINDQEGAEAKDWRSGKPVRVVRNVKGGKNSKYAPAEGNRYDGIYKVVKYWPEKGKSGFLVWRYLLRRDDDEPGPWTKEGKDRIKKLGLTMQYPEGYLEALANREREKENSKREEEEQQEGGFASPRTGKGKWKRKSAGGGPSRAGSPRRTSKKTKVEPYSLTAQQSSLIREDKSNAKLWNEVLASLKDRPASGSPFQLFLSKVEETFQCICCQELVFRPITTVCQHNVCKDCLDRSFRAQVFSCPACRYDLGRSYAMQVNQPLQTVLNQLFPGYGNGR

[10] = biological target: T3, Chromodomain Y-like protein 2 (Homo sapiens, UniProt Q8N8U2); assay: Displacement of Biotin-p53K381acK382me2 from CDYL2 (unknown origin) by TR-FRET assay
T3 sequence (Q8N8U2 whole entry): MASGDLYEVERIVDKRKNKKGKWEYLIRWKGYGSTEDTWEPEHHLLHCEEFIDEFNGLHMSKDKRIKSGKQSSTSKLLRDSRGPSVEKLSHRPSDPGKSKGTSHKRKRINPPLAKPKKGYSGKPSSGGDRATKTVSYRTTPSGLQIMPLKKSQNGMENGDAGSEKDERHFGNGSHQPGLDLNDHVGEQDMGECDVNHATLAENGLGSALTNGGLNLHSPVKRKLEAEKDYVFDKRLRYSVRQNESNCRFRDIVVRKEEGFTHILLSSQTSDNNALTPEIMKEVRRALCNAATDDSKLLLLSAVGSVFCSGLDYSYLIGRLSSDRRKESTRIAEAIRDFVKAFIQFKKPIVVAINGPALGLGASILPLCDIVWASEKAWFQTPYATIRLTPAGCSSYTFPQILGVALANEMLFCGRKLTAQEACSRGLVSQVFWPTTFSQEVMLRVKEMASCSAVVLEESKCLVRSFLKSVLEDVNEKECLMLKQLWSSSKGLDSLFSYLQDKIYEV

TP53-binding protein 1 [11] = biological target: T1, TP53-binding protein 1; assay: Binding affinity to N-terminal his6-tagged 53BP1 (1484 to 1603 residues) (unknown origin) expressed in Rosetta2 BL21 (DE3) pLysS competent cells assessed as dissociation constant by SPR analysis
PHD finger protein 19 = PHD finger protein 19 (Homo sapiens, UniProt Q5T6S3); assay: Displacement of Biotin-p53K381acK382me2 from PHF19 (unknown origin) by TR-FRET assay
TP53-binding protein 1 [12] = biological target: T1, TP53-binding protein 1; assay: Antagonist activity at nanoluc-tagged 53BP1 tandem tudor domain (unknown origin) transfected in HEK293T cells assessed as inhibition of 53BP1-H4 peptide interaction by nanoBRET assay; type: cell-based
[13] = biological target: T4, Chromobox protein homolog 2 (Homo sapiens, UniProt Q14781); assay: Displacement of Biotin-p53K381acK382me2 from CBX2 chromodomain (unknown origin) by TR-FRET assay
T4 sequence (Q14781 whole entry): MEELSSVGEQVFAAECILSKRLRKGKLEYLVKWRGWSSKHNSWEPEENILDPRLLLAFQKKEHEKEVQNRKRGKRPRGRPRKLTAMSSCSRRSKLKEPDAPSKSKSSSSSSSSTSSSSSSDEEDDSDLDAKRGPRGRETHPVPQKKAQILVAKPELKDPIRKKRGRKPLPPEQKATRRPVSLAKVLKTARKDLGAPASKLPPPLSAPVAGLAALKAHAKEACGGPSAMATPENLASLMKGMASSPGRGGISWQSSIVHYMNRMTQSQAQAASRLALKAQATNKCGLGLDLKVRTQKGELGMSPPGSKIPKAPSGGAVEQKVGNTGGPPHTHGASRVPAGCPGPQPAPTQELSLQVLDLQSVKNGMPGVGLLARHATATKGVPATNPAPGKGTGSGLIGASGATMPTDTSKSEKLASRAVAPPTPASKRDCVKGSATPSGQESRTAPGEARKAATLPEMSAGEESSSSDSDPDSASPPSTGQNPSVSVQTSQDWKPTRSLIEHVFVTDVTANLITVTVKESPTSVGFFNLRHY

TERT-RPE1 [14] = assay: Cytotoxicity against human RPE-1 cells assessed as reduction in cell viability measured upto 200 uM by celltiterglo 2.0 assay; type: toxicity, cell-based; details: tert-rpe1, 200 µM
TP53-binding protein 1 [15] = biological target: T1, TP53-binding protein 1; assay: Binding affinity to N-terminal his6-tagged 53BP1 tandem tudor domain (1484 to 1603 residues) (unknown origin) expressed in Rosetta2 BL21 (DE3) pLysS competent cells assessed as dissociation constant by ITC analysis
M-phase phosphoprotein 8 = biological target: T5, M-phase phosphoprotein 8 (Homo sapiens, UniProt Q99549); assay: Displacement of Biotin-p53K381acK382me2 from MPP8 chromodomain (unknown origin) by TR-FRET assay
T5 sequence (Q99549 whole entry): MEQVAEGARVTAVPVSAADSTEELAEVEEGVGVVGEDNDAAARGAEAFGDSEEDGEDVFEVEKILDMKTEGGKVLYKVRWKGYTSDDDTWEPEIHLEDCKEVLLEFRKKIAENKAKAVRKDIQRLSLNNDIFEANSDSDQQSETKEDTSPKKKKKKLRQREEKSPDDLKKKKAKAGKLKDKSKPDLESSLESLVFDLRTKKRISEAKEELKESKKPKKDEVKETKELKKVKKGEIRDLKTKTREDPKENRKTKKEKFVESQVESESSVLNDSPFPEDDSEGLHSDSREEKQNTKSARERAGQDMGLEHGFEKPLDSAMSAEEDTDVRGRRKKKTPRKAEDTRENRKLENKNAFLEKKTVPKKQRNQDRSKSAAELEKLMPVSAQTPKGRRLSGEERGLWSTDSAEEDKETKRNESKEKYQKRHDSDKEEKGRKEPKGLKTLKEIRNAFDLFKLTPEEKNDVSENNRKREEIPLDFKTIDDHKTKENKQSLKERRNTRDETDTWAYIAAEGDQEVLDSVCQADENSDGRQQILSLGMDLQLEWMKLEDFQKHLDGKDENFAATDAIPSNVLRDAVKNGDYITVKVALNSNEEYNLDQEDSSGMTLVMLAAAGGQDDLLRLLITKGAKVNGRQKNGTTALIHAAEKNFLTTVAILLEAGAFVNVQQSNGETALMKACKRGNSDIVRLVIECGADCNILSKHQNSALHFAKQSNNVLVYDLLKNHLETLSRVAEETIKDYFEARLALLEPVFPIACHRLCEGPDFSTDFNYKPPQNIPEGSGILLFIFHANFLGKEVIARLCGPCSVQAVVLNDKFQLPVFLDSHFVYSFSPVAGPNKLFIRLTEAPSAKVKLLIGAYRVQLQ

Row | IC50 [3] | Kinetic_solubility [4] | IC50 [6] | IC50 (TP53-binding protein 1 [7]) | deltaH (TP53-binding protein 1 [8]) | IC50 [9] | IC50 [10] | Kd (TP53-binding protein 1 [11]) | IC50 (PHD finger protein 19) | IC50 (TP53-binding protein 1 [12]) | IC50 [13] | Kd (TP53-binding protein 1 [15]) | IC50 (M-phase phosphoprotein 8) | Compound | Activity (HEK-293T [1]) | Activity (TERT-RPE1 [2]) | Activity (HEK-293T [5]) | Activity (TERT-RPE1 [14])
1 |  |  |  |  |  |  |  |  |  |  |  |  |  | O=C1NCc2ccc(-c3cccc(NC(=O)[C@H]4CCCN(C(=O)c5cc(N6CCCCC6)ccn5)C4)c3)cc21 | Toxic | Toxic |  | 
2 | > 100 µM | 200 µM | > 100 µM | 0.46 µM | -5.8 kcal/mol | > 100 µM | > 100 µM | 0.17 µM | > 100 µM | 6.9 µM | > 100 µM | 0.41 µM | > 100 µM | CN1CCN(c2ccnc(C(=O)N3CCC[C@H](C(=O)Nc4cccc(-c5ccc6c(c5)C(=O)NC6)c4)C3)c2)CC1 |  |  | Non-Toxic | Non-Toxic
3 | > 100 µM | 194 µM | > 100 µM | 0.47 µM | -9.2 kcal/mol | > 100 µM | > 100 µM | 0.79 µM | > 100 µM | 8.5 µM | > 100 µM | 0.85 µM | > 100 µM | CN1CCN(c2ccnc(C(=O)N3CCC[C@H](C(=O)Nc4cccc(-c5ccc(C(N)=O)cc5)c4)C3)c2)CC1 |  |  | Non-Toxic | Non-Toxic
